Data: US20110105623A1 (Biogenic Innovations, LLC, priority 2009, published 2011)

Key:
Assay type in all cases: cell-based
[1] = tested on: MRC-5 (Human lung fibroblasts) cells; test: Toxicity control for Pre-Treatment test
From the text: (§1) B. Toxicity Control for Pre-Treatment Test.

[2] = tested on: Vero (African green monkey kidney) cells; test: Toxicity control for Pre-Treatment test
From the text: as §1

Bacillus coagulans = test: Probiotic growth in media supplemented with MSM
From the text: (§2) Plates were then counted. […] Data are presented in Cfu/mL.

[3] = tested on: Lactobacillus acidophilus; test: Probiotic growth in media supplemented with MSM; conditions: 0.125% MSM
From the text: as §2

Methylsulfonylmethane [MSM]
Test Product Cytotoxicity (CPE) ([1]; MRC-5, 0.5%): 00 | Test Product Cytotoxicity (CPE) ([1]; MRC-5, 1%): 00 | Test Product Cytotoxicity (CPE) ([1]; MRC-5, 2%): 00 | Test Product Cytotoxicity (CPE) ([1]; MRC-5, 3%): 00 | Test Product Cytotoxicity (CPE) ([1]; MRC-5, 4%): 00 | Test Product Cytotoxicity (CPE) ([1]; MRC-5, 5%): 00 | Test Product Cytotoxicity (CPE) ([1]; MRC-5, 6%): 00 | Test Product Cytotoxicity (CPE) ([2]; 0.5%): 00 | Test Product Cytotoxicity (CPE) ([2]; 1%): 00 | Test Product Cytotoxicity (CPE) ([2]; 2%): 00 | Test Product Cytotoxicity (CPE) ([2]; 3%): 00 | Test Product Cytotoxicity (CPE) ([2]; 4%): 00 | Test Product Cytotoxicity (CPE) ([2]; 5%): 00 | Test Product Cytotoxicity (CPE) ([2]; 6%): 00 | Test Product Cytotoxicity (CPE) ([2]; 7%): 00 | Growth of Bacillus coagulans (Bacillus coagulans; 0.125% MSM, 0 h): 1.52 log10 CFU/mL | Growth of Bacillus coagulans (Bacillus coagulans; 0.125% MSM, 8 h): 4.81 log10 CFU/mL | Growth of Bacillus coagulans (Bacillus coagulans; 0.125% MSM, 16 h): 6.95 log10 CFU/mL | Growth of Bacillus coagulans (Bacillus coagulans; 0.125% MSM, 24 h): 9.87 log10 CFU/mL | Growth of Bacillus coagulans (Bacillus coagulans; 0.125% MSM, 32 h): 11.06 log10 CFU/mL | Growth of Bacillus coagulans (Bacillus coagulans; 0.125% MSM, 40 h): 11.72 log10 CFU/mL | Growth of Bacillus coagulans (Bacillus coagulans; 0.125% MSM, 48 h): 11.56 log10 CFU/mL | Growth of Bacillus coagulans (Bacillus coagulans; 0.125% MSM, 56 h): 9.60 log10 CFU/mL | Growth of Bacillus coagulans (Bacillus coagulans; 0.125% MSM, 64 h): 12.13 log10 CFU/mL | Growth of Bacillus coagulans (Bacillus coagulans; 0.125% MSM, 72 h): 10.14 log10 CFU/mL | Growth of Bacillus coagulans (Bacillus coagulans; 0.2% MSM, 0 h): 1.67 log10 CFU/mL | Growth of Bacillus coagulans (Bacillus coagulans; 0.2% MSM, 8 h): 4.94 log10 CFU/mL | Growth of Bacillus coagulans (Bacillus coagulans; 0.2% MSM, 16 h): 7.19 log10 CFU/mL | Growth of Bacillus coagulans (Bacillus coagulans; 0.2% MSM, 24 h): 10.34 log10 CFU/mL | Growth of Bacillus coagulans (Bacillus coagulans; 0.2% MSM, 32 h): 11.25 log10 CFU/mL | Growth of Bacillus coagulans (Bacillus coagulans; 0.2% MSM, 40 h): 11.34 log10 CFU/mL | Growth of Bacillus coagulans (Bacillus coagulans; 0.2% MSM, 48 h): 9.94 log10 CFU/mL | Growth of Bacillus coagulans (Bacillus coagulans; 0.2% MSM, 56 h): 11.45 log10 CFU/mL | Growth of Bacillus coagulans (Bacillus coagulans; 0.2% MSM, 64 h): 11.37 log10 CFU/mL | Growth of Bacillus coagulans (Bacillus coagulans; 0.2% MSM, 72 h): 10.94 log10 CFU/mL | Growth of Bacillus coagulans (Bacillus coagulans; 0.50% MSM, 0 h): 1.48 log10 CFU/mL | Growth of Bacillus coagulans (Bacillus coagulans; 0.50% MSM, 8 h): 4.42 log10 CFU/mL | Growth of Bacillus coagulans (Bacillus coagulans; 0.50% MSM, 16 h): 6.94 log10 CFU/mL | Growth of Bacillus coagulans (Bacillus coagulans; 0.50% MSM, 24 h): 10.29 log10 CFU/mL | Growth of Bacillus coagulans (Bacillus coagulans; 0.50% MSM, 32 h): 11.05 log10 CFU/mL | Growth of Bacillus coagulans (Bacillus coagulans; 0.50% MSM, 40 h): 10.25 log10 CFU/mL | Growth of Bacillus coagulans (Bacillus coagulans; 0.50% MSM, 48 h): 10.40 log10 CFU/mL | Growth of Bacillus coagulans (Bacillus coagulans; 0.50% MSM, 56 h): 10.76 log10 CFU/mL | Growth of Bacillus coagulans (Bacillus coagulans; 0.50% MSM, 64 h): 10.45 log10 CFU/mL | Growth of Bacillus coagulans (Bacillus coagulans; 0.50% MSM, 72 h): 10.86 log10 CFU/mL | Growth of Bacillus coagulans (Bacillus coagulans; 1% MSM, 0 h): 1.30 log10 CFU/mL | Growth of Bacillus coagulans (Bacillus coagulans; 1% MSM, 8 h): 4.98 log10 CFU/mL | Growth of Bacillus coagulans (Bacillus coagulans; 1% MSM, 16 h): 7.29 log10 CFU/mL | Growth of Bacillus coagulans (Bacillus coagulans; 1% MSM, 24 h): 10.30 log10 CFU/mL | Growth of Bacillus coagulans (Bacillus coagulans; 1% MSM, 32 h): 11.42 log10 CFU/mL | Growth of Bacillus coagulans (Bacillus coagulans; 1% MSM, 40 h): 11.02 log10 CFU/mL | Growth of Bacillus coagulans (Bacillus coagulans; 1% MSM, 48 h): 10.38 log10 CFU/mL | Growth of Bacillus coagulans (Bacillus coagulans; 1% MSM, 56 h): 10.86 log10 CFU/mL | Growth of Bacillus coagulans (Bacillus coagulans; 1% MSM, 64 h): 10.40 log10 CFU/mL | Growth of Bacillus coagulans (Bacillus coagulans; 1% MSM, 72 h): 10.70 log10 CFU/mL | Growth of Bacillus coagulans (Bacillus coagulans; 5% MSM, 0 h): 1.56 log10 CFU/mL | Growth of Bacillus coagulans (Bacillus coagulans; 5% MSM, 8 h): 4.61 log10 CFU/mL | Growth of Bacillus coagulans (Bacillus coagulans; 5% MSM, 16 h): 7.56 log10 CFU/mL | Growth of Bacillus coagulans (Bacillus coagulans; 5% MSM, 24 h): 10.48 log10 CFU/mL | Growth of Bacillus coagulans (Bacillus coagulans; 5% MSM, 32 h): 11.55 log10 CFU/mL | Growth of Bacillus coagulans (Bacillus coagulans; 5% MSM, 40 h): 10.85 log10 CFU/mL | Growth of Bacillus coagulans (Bacillus coagulans; 5% MSM, 48 h): 10.22 log10 CFU/mL | Growth of Bacillus coagulans (Bacillus coagulans; 5% MSM, 56 h): 11.1 log10 CFU/mL | Growth of Bacillus coagulans (Bacillus coagulans; 5% MSM, 64 h): 10.75 log10 CFU/mL | Growth of Bacillus coagulans (Bacillus coagulans; 5% MSM, 72 h): 11.81 log10 CFU/mL | Growth of Bacillus coagulans (Bacillus coagulans; […] MSM, 0 h): 1.43 log10 CFU/mL | Growth of Bacillus coagulans (Bacillus coagulans; […] MSM, 8 h): 5.13 log10 CFU/mL | Growth of Bacillus coagulans (Bacillus coagulans; […] MSM, 16 h): 7.05 log10 CFU/mL | Growth of Bacillus coagulans (Bacillus coagulans; […] MSM, 24 h): 10.22 log10 CFU/mL | Growth of Bacillus coagulans (Bacillus coagulans; […] MSM, 32 h): 11.70 log10 CFU/mL | Growth of Bacillus coagulans (Bacillus coagulans; […] MSM, 40 h): 10.55 log10 CFU/mL | Growth of Bacillus coagulans (Bacillus coagulans; […] MSM, 48 h): 10.88 log10 CFU/mL | Growth of Bacillus coagulans (Bacillus coagulans; […] MSM, 56 h): 10.86 log10 CFU/mL | Growth of Bacillus coagulans (Bacillus coagulans; […] MSM, 64 h): 10.97 log10 CFU/mL | Growth of Bacillus coagulans (Bacillus coagulans; […] MSM, 72 h): 11.05 log10 CFU/mL | Growth of Lactobacillus acidophilus ([3]; 0 h): 1.37 log10 CFU/mL | Growth of Lactobacillus acidophilus ([3]; 8 h): 2.19 log10 CFU/mL | Growth of Lactobacillus acidophilus ([3]; 16 h): 4.83 log10 CFU/mL
